Earlier results as cited in patent US11504326B2, “Lipid emulsion therapy for treating acute cannabinoid intoxication” (priority 2019, dated 2022).
Like-named read-outs stand apart in the source and are kept apart here.

What was measured:
[1] = test system: psychoactive effects; conditions: for dose that impairs attention, concentration, short-term memory, and executive functioning: adolescents and adults
[2] = in vivo

CCCCCc1cc(O)c2c(c1)OC(C)(C)[C@@H]1CCC(C)=C[C@@H]21 [THC, tetrahydrocannabinol]
dose that impairs attention, concentration, short-term memory, and executive functioning ([1]; ingested): 5 to 20 mg
dose at which psychotropic effects occur ([1]; ingested, naive users): 5 to 20 mg
dose that impairs attention, concentration, short-term memory, and executive functioning ([1]; inhaled): 2 to 3 mg
dose sufficient to produce drug effects ([1]; inhaled, naïve user): 2 to 3 mg
protein-bound [2]: 95-99%
volume of distribution [2]: 2.5 to 3.5 L/kg
